PMC7824363, “The Cytotoxicity of RNase-Derived Peptides” (Biomolecules, 2020)

Key:
BT-20 cells [1] = assay: MTT assay, BT-20 cell viability; type: cell-based, human; conditions: 48 h
Experimental: (§1) The human alveolar adenocarcinoma cell line (A549), two breast cancer cell lines (MCF-7 and BT-20), and cervical cancer cell line (HeLa) were obtained from American Type Culture […] (Rockville, MD, USA). Cells were grown at 37 °C in humidified 5% CO2 atmosphere using RPMI 1640 medium for A549 cells and Dulbecco’s modified Eagle’s medium for MCF-7, BT-20, and HeLa cells supplemented with 10% fetal bovine serum (HyClone), 2 mM glutamine, and antibiotics (penicillin and streptomycin, 100 U/mL each).
(§2) The viability of untreated control cells and cells treated with binase and binase-derived peptides at different concentrations (5, 50, and 125 μM) was determined according to the mitochondrial nicotinamide adenine dinucleotide phosphate NAD(P)H-dependent cellular oxidoreductases activity tested by the standard procedure based on the reduction of the tetrazolium dye MTT) to its insoluble product formazan, which has a purple color. Cells at the initial concentration of […] per well were grown in a 96-well plate (CELLTREAT Scientific Products, Shirley, MA, USA); then, the culture fluid was discarded and fresh medium with peptides was added. After 48 h, formazan absorption was measured at 570 nm (xMark, Bio-Rad, Hercules, CA, USA). The amount of formazan produced is proportional to the number of viable cells. The viability of untreated cells was taken as 100%.

HeLa cells = assay: MTT assay, HeLa cell viability; type: cell-based, human; conditions: 48 h, versus untreated cells = 100%, triplicate
Experimental: as §1, §2

BT-20 cells [2] = assay: Immunofluorescence confocal microscopy, entry into BT-20 cells; type: cell-based, human; conditions: 50 µM, 30 min incubation, His-tagged peptides (anti-His Alexa Fluor 647) or tagless binase (anti-binase, FITC), confocal laser scanning microscopy
Experimental: (§3) A549 cells (25,000 cells/well) and BT-20 cells (150,000 cells/well) were seeded on 4-well chamber slides and incubated for 24 h in 800 µL of 10% fetal bovine serum containing RPMI or DMEM, respectively. The medium was replaced with the fresh one, and the His-tagged B21–50 and B74–94 peptides or tagless binase were applied to each well at the final concentration of 50 µM. After 30 min of incubation, the medium was removed, and the cells were washed three times with ice-cold phosphate-buffered saline (PBS). Then, cells were fixed in a 4% paraformaldehyde solution for 15 min and permeabilized in 0.1% Triton-X100 solution in PBS for 10 min. Binase-treated cells were incubated overnight with anti-binase antibodies (1:500) at 4 °C [39]. Thereafter, the cells were washed three times in PBS containing 0.1% Tween for 10 min each and then were incubated with fluorescein isothiocyanate (FITC)-conjugated mouse anti-rabbit immunoglobulin G (IgG) (H+L) cross-adsorbed secondary antibody (Thermo Fisher Scientific, Inc., Waltham, MA, USA Cat.# 31584) at the concentration of 2 µg/mL in PBS containing 1% bovine serum albumin at room temperature for 45 min in the dark. Non-specific binding of the secondary antibodies was evaluated at the same experiment but without treatment with primary antibodies. […]

A549 cells = assay: Immunofluorescence confocal microscopy, entry into A549 cells; type: cell-based, human; conditions: 50 µM, 30 min incubation, His-tagged peptides (anti-His Alexa Fluor 647) or tagless binase (anti-binase, FITC), confocal laser scanning microscopy
Experimental: as §3

MCF-7 cells = assay: MTT assay, MCF-7 cell viability; type: cell-based, human; conditions: 125 µM, 48 h
Experimental: as §1, §2

BT-20 cells [3] = assay: MTT assay with cetuximab pre-treatment (EGFR inhibition); type: cell-based, human; conditions: 10 μg/mL cetuximab for 48 h, then 50 μM peptide for 48 h
Experimental: To examine the peptide effect on EGFR signaling, the EGFR-specific monoclonal antibody cetuximab (Merck, KGaA, Darmstadt, Germany) was added at the concentration of 10 μg/mL to cells grown for 24 h in 96-well plates. After 48 h of exposure to inhibitor, half the wells were treated with the B74–94 peptide at 50 μM concentration, and the cells were allowed to grow for another 48 h. Afterwards, cell proliferation was assessed by the MTT assay.

[4] = biological target: epidermal growth factor receptor (human (endogenous in BT-20)) (UniProt P00533)
[5] = concentration not specified (5-125 µM tested)

Question: How did the “decrease of cell viability” value (BT-20 cells [1]; [5]) turn out when “B1–20: chemically synthesized peptide corresponding to binase region 1–20 (AVINTFDGVADYLIRYKRLP; UniProt P00649 54-73, looked up, fragment)” was run?
Answer: Its value is 15–25%.

Question: For “B21–50: chemically synthesized peptide corresponding to binase region 21–50 (DNYITKSQASALGWVASKGNLAEVAPGKSI; UniProt P00649 74-103, looked up, fragment)”, which “decrease of cell viability” value (HeLa cells; 50 µM) is on record?
Answer: Its value is 45%.

Question: What about the “decrease of cell viability” value (HeLa cells; 125 µM (highest concentration)) of the same substance?
Answer: Its value is 93%.

Question: And the “decrease of cell viability” value (BT-20 cells [1]; 5 µM, versus non-treated cells, triplicate)?
Answer: The value was 28%.

Question: What about the “decrease of cell viability” value (BT-20 cells [1]; 50 µM, versus non-treated cells, triplicate) of the same substance?
Answer: The value was 23%.

Question: And the “decrease of cell viability” value (BT-20 cells [1]; 125 µM, versus non-treated cells, triplicate)?
Answer: Its value is 68%.

Question: What about the “detection inside BT-20 cells” value (BT-20 cells [2]) of the same substance?
Answer: Its value is “detected inside BT-20 cells”.

Question: And the “detection inside A549 cells” value (A549 cells)?
Answer: The value was “not been visualized”.

Question: How did the “inhibition of cell proliferation (fold)” value (MCF-7 cells) turn out when “B74–94: chemically synthesized peptide corresponding to binase region 74–94 (DINYVSGFRNADRLVYSSDWL; UniProt P00649 127-147, looked up, fragment)” was run?
Answer: The value was “two-fold”.

Question: And the “decrease of cytotoxicity after preliminary cell treatment with cetuximab” value (BT-20 cells [3])?
Answer: The value was 28%.

Question: And the “detection inside BT-20 cells” value (BT-20 cells [2])?
Answer: Its value is “detected inside BT-20 cells”.

Question: And the “detection inside A549 cells” value (A549 cells)?
Answer: The value was “not been visualized”.

Question: For “B95–109: chemically synthesized peptide corresponding to binase region 95–109 (IYKTTDHYATFTRIR; UniProt P00649 148-162, looked up, fragment)”, which “decrease of cell viability” value (BT-20 cells [1]; [5]) is on record?
Answer: The value was 15–25%.

Question: With binase-derived peptide B74–94 as the substance, how does the cytotoxicity of B74–94 (50 μM, 48 h) toward BT-20 cells by MTT assay after 48 h of pre-treatment with 10 μg/mL cetuximab (EGFR-specific antibody) [4] read?
Answer: The cytotoxicity of B74–94 (50 μM, 48 h) toward BT-20 cells by MTT assay after 48 h of pre-treatment with 10 μg/mL cetuximab (EGFR-specific antibody) was 28%.
